According to US9260391B2, “Hypoglycemic dihydropyridones” (The Trustees of Columbia University in the City of New York, priority 2008, dated 2016):
Entries after “also recorded” stand apart in the source; their conditions may differ.

Legend:
[1] = molecular target: T1, VMAT2 in beta cells (Rattus norvegicus, UniProt Q01827); experiment: PET study: displacement of [11C]DTBZ in the pancreas by cold analog; type: in vivo; settings: cold compound 2 mg/kg injected 30 min after radioligand; relative to DTBZ
T1 construct: from tissue; host or cells: pancreas (beta cells) of living Lewis rats
T1 sequence (Q01827 whole entry): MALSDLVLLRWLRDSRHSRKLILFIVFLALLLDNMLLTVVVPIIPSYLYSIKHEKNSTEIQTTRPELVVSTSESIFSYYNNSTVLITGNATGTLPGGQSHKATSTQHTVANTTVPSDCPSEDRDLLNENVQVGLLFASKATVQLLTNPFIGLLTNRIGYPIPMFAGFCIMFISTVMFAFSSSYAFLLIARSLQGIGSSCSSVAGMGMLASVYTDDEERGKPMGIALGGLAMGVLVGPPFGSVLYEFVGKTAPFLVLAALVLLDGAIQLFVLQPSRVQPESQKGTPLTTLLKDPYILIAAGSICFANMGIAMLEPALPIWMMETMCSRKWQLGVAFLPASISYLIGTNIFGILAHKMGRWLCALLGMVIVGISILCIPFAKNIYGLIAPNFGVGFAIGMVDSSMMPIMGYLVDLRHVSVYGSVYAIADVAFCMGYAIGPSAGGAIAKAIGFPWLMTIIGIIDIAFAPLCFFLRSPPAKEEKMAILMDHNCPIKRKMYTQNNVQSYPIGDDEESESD
Experimental: PET scans were performed on anesthetized 12-14 week old Lewis male rats injected with radioligand [^11C]DTBZ (0 min, 0.5-1.0 μCi/gm body weight, specific activity >[…]) and cold compound 8 (HG-3) (30 mins, 2 mg/kg). The fraction of radioligand in the pancreas relative to the total amount injected was calculated and plotted versus time after injection. Error bars indicate SEM (n=3).
To test binding to VMAT2 in beta cells, PET scans were performed on 12-14 week old Lewis Male rats. Prior to imaging, the animals were anesthetized by isoflurane inhalation. After a transmission scan of the area of interest had been acquired (used to perform attenuation correction of the emission data), the radioligand [11C]DTBZ was administered (0.5-1.0 μCi/gm) in saline as bolus injection via the penile vein. PET scans of the animals were acquired dynamically to 90 min post injection on a Concorde microPET-R4 (CTI Molecular Imaging, Knoxville, Tenn., USA). The scanner provided a 100×80 mm field of view with a reconstructed resolution of 2.25 mm in the central 40 mm of the field of view. At thirty minutes post injection of [11C]DTBZ, the animals received a second injection via the penile vein of cold analog. […]

[2] = test system: human islets; experiment: Glucose-stimulated insulin secretion of purified human cadaveric islets ex vivo; type: cell-based; settings: high glucose media; ELISA
Experimental: The islet tissue used in these studies was obtained with institutional review board approval. Pancreas digestion and islet isolation were performed using minor modifications of the Edmonton purification protocol. (Shapiro, […] al. “Islet […] in seven patients with type I diabetes mellitus using a glucocortoid-free immunosuppressive regimen.” New England Journal of Medicine 343(4):230-8, (2000)) The determination of islet cell mass, viability, and purity were also performed. Purified islets were cultured in CMRL 1066 culture media with 10% fetal bovine serum at 37° C. in humidified air (5% CO2) for 18 to 24 hours. The human islet insulin secretory response was performed according to a procedure described by the Edmonton group. (Id.) Briefly, after an overnight culture, islets were incubated with either low or high concentrations of glucose for 2 hours at 37° C. and 5% CO2. The supernatant was collected for insulin measurement. Insulin concentrations in these experiments were analyzed with a human insulin enzyme-linked immunosorbent assay (ELISA) kit (ALPCO Insulin ELISA kit, Windham, N.H.). In some experiments TBZ, DTBZ or epinephrine was added to the cultures before glucose stimulation.

[3] = molecular target: T2, dipeptidyl peptidase IV (DDP-IV) (Homo sapiens, UniProt P27487); experiment: Effect on dipeptidyl peptidase IV in vitro (BPS Bioscience assays); type: biochemical; settings: concentrations up to 10 μM; data not shown
T2 construct: purchased BPS Bioscience, Inc. (San Diego, Calif.)
T2 sequence (P27487 whole entry): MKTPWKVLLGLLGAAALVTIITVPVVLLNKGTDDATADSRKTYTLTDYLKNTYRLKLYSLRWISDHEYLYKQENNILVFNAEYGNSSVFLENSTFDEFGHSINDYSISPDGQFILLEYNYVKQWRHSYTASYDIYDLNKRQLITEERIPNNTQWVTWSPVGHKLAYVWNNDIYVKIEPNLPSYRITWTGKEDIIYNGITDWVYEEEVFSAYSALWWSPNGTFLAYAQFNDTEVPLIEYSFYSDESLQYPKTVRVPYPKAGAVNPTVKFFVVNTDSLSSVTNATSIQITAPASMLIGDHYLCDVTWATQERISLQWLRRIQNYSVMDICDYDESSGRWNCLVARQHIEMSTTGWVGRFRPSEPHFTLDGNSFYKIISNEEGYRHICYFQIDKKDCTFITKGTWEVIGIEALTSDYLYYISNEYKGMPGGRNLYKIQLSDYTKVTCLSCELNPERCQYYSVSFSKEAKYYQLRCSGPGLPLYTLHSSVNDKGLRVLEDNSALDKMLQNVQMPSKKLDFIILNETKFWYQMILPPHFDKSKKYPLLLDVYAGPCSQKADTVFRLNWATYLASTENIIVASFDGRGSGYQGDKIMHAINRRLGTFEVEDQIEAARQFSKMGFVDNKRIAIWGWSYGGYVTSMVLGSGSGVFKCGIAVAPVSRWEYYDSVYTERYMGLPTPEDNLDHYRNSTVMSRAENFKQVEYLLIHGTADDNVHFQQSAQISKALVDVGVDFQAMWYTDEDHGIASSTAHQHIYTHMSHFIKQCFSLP
Experimental: The effect of HG-3 on DDP-IV was determined by assays provided by BPS Bioscience, Inc. (San Diego, Calif.).

[4] = test system: Lewis rats; experiment: IPGTT of analogs HG-1 to HG-11, compounds given orally (FIG. 15); type: in vivo, rat; settings: 2 mg/kg orally
Experimental: FIG. 15 is a bar graph showing the results of testing various analogs HG-1 to HG-11 in IPGTT glucose tolerance tests in rats. Results for TBZ, emetine, and olanzapine are also shown. Lewis rats fasted for 6 hours were administered the compounds orally (30 min, 2 mg/kg) followed by intraperitoneal glucose injection (0 min, […]), and plasma glucose levels were monitored for 120 mins. Results are presented as AUC percentage of the vehicle. Error bars indicate SEM (n=5).
Racemic HG-2 and its diastereoisomer HG-1 were evaluated for their ability to improve glucose tolerance by performing intraperitoneal glucose tolerance tests (IPGTT) in rats. IPGTT testing is described above. See also Murthy, R., et al., Eur. J. Nucl. Med. Mol. Imaging, 2008, 35(4), 790-797.

Compound | displacement of [11C]DTBZ in the endocrine pancreas / binding to VMAT2 [1] | insulin secretion by human islets after stimulation by high concentrations of glucose [2] | effect on DDP-IV in vitro [3] | decrease of the AUC IPGTT (area under the blood glucose concentration-time curve) ([4]; 30 min before i.p. glucose, relative to vehicle, n=5) [%] | hypoglycemic activity in IPGTT compared with TBZ / HG-3 ([4]; FIG. 15)
COc1ccc(C2CC(O)C(CC(C)C)C(=O)N2)cc1OC (stereo not shown) [HG-4] | weak binding | – | – | – | –
COc1cc2c(cc1OC)[C@@H]1C[C@H](O)[C@@H](CC(C)C)CN1CC2 [DTBZ, dihydrotetrabenazine] | – | significantly enhanced the amount of insulin secreted; also recorded: enhances glucose-stimulated insulin secretion | – | – | –
COc1ccc(C2CC(OCC(C)C)=CC(=O)N2)cc1OC (stereo not shown) [HG-3, 6-(3,4-dimethoxyphenyl)-4-isobutoxy-5,6-dihydropyridin-2(1H)-one] | did not significantly displace | – | negative | 45 | potent hypoglycemic effect; also recorded: significant decrease in blood glucose levels as compared to TBZ
CNC[C@H](O)c1ccc(O)c(O)c1 [epinephrine, L-epinephrine bitartrate] | – | inhibited secretion of insulin | – | – | –
